Twelve compounds from ChEMBL document CHEMBL1201862, “PubChem BioAssay data set” (2004) can be followed below.

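Exposure lasted 48 hours, with cells grown in 96-well plates and compounds tested at five concentrations. Here, GI50 denotes the concentration required for 50% inhibition of growth.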 Calls of active or inactive are those of the source. No stated cut-off is given here; in the data, active = GI50 up to about 1.1 µM and inactive = higher. Some results are limits rather than exact numbers.

One may read the GI50 as the concentration that inhibits growth by half.

Among the test systems are A498; A549; HCT-15; HOP-62; HOP-92; MOLT-4; NCI-H460; NCI-H522; OVCAR-5; SF-268; SK-MEL-28; SK-MEL-2; SK-OV-3; SN12C; UACC-62; UO-31; DU-145; MDA-MB-435; NCI/ADR-RES; PC-3.
Holding throughout (assay): DTP human tumour cell line panel, 48 h

In the case of `C[C@]12Cc3cn[nH]c3C(=O)C1CC[C@@H]1C2CC[C@@]2(C)C1CC[C@@H]2O` (stereo partly specified), the GI50 with A498 is > 100 µM (inactive); in the assay on A549, > 100 µM (inactive); in the assay with HCT-15, over 100 µM; with HOP-62 it was > 100 µM (inactive); in the assay with HOP-92, > 100 µM (inactive); in the assay with MOLT-4 it was > 100 µM (inactive). Moreover, the GI50 was > 100 µM (inactive) in the assay on NCI-H460; > 100 µM (inactive) in the assay with NCI-H522; > 100 µM (inactive) in the assay on OVCAR-5; > 100 µM (inactive) with SF-268; > 100 µM (inactive) in the assay with SK-MEL-28; 1.23 µM (inactive) in the assay on SK-MEL-2. Moreover, the GI50 with SK-OV-3, in the assay on SN12C, with UACC-62 and with UO-31 was > 100 µM (inactive) in each case.
`O=C(O)Cc1ccc(-n2nnc3c(=O)[nH][nH]c(=O)c32)cc1`: the GI50 with A549 was > 100 µM (inactive); with DU-145, > 100 µM (inactive); with HCT-15 it was over 100 µM; in the assay with HOP-62, > 100 µM (inactive); in the assay with HOP-92, > 100 µM (inactive); in the assay on MDA-MB-435, > 100 µM (inactive). For the same compound, the GI50 in the assay with MOLT-4, in the assay on NCI-H460, in the assay on NCI/ADR-RES, in the assay with OVCAR-5, in the assay with PC-3 and in the assay on SK-MEL-28 was > 100 µM (inactive) each time. The GI50 in the assay on SK-MEL-2, in the assay on SN12C and with UO-31 was > 100 µM (inactive) in each case.
Regarding `CN(C)c1nc2oc(-c3ccccc3)c(-c3ccccc3)c2c2nnnn12`, the GI50 with A498 was > 100 µM (inactive); in the assay with A549, > 100 µM (inactive); with DU-145, > 100 µM (inactive); in the assay on HCT-15, over 100 µM; in the assay on HOP-92, > 100 µM (inactive); in the assay on MDA-MB-435, > 100 µM (inactive). Besides, the GI50 in the assay on MOLT-4, in the assay on NCI-H522, with NCI/ADR-RES, in the assay with OVCAR-5, in the assay with SF-268 and in the assay on SK-MEL-28 was > 100 µM (inactive) in each case. Besides, the GI50 in the assay on SK-OV-3, in the assay on SN12C, in the assay with UACC-62 and with UO-31 was > 100 µM (inactive) each time.
On to `COC1C(O)C(C)OC(OC2C(Oc3cccc4c(O)c5c(=O)oc6ccc(C)c7c(=O)oc(c34)c5c67)OC(C)C3O[C@H](c4ccccc4)OC32)C1O` (stereo partly specified), for which the GI50 is 0.0731 µM (active) in the assay on A498; 0.0286 µM (active) in the assay on A549; 0.193 µM (active) in the assay with DU-145; 0.168 µM with HCT-15; 0.0441 µM (active) in the assay with HOP-62; 1.23 µM (inactive) with HOP-92. For the same compound, the GI50 is 0.0195 µM (active) in the assay on NCI-H460; 2.12 µM (inactive) with NCI/ADR-RES; 1.48 µM (inactive) in the assay on OVCAR-5; 0.361 µM (active) with PC-3; 0.135 µM (active) with SF-268; 0.319 µM (active) with SK-MEL-28. Moreover, the GI50 was 0.824 µM (active) in the assay with SK-MEL-2; 0.533 µM (active) in the assay with SK-OV-3; 0.0578 µM (active) with SN12C; 0.14 µM (active) with UACC-62; 0.294 µM (active) in the assay with UO-31.
In the case of `CC(CCc1ccccc1)NCC(O)n1c(/N=N/N(C)C)nc2c1c(=O)n(C)c(=O)n2C` (stereo unspecified), the GI50 in the assay with A498 is > 100 µM (inactive); in the assay with A549, > 100 µM (inactive); in the assay on HCT-15, over 100 µM; with HOP-62, > 100 µM (inactive); in the assay on HOP-92, > 100 µM (inactive); in the assay on MDA-MB-435, > 100 µM (inactive). The GI50 was > 100 µM (inactive) in the assay on MOLT-4; 41.1 µM (inactive) in the assay on NCI-H460; > 100 µM (inactive) with NCI-H522; > 100 µM (inactive) with NCI/ADR-RES; > 100 µM (inactive) in the assay on OVCAR-5; > 100 µM (inactive) with PC-3. Further, the GI50 in the assay with SF-268, with SK-MEL-28, in the assay with SK-MEL-2, in the assay with SK-OV-3, with UACC-62 and in the assay on UO-31 was > 100 µM (inactive) in each case.
Turning to `Cc1c(/C=N/NC(=S)Nc2ccc([N+](=O)[O-])cc2)c(=O)n(-c2ccccc2)n1C`, the GI50 with A498 was 10.9 µM (inactive); in the assay on HCT-15, 3.08 µM; in the assay with HOP-62, 11.6 µM (inactive); with HOP-92, 11.8 µM (inactive); in the assay with MDA-MB-435 it was > 100 µM (inactive); in the assay on MOLT-4, 9.48 µM (inactive). Also, the GI50 with NCI/ADR-RES was 9.66 µM (inactive); in the assay with PC-3 it was 19.1 µM (inactive); in the assay with SF-268 it was 13.5 µM (inactive); in the assay on SK-MEL-28, > 100 µM (inactive); in the assay on SK-MEL-2, 15.5 µM (inactive); in the assay with SK-OV-3, 13.5 µM (inactive). Further, the GI50 with UACC-62 is 17.6 µM (inactive); in the assay with UO-31 it was 11.4 µM (inactive).
On to `OCCCCCCOc1ccc(-c2cc(-c3ccccn3)nc(-c3ccccn3)c2)cc1`, for which the GI50 is 1.11 µM (active) with A498; 0.23 µM (active) in the assay with A549; 0.0716 µM (active) in the assay on DU-145; 0.109 µM in the assay on HCT-15; 0.172 µM (active) in the assay with HOP-62; 0.643 µM (active) in the assay with HOP-92. The GI50 in the assay on MDA-MB-435 is 0.462 µM (active); in the assay on MOLT-4, 0.0274 µM (active); in the assay on NCI-H460, 0.104 µM (active); in the assay with NCI-H522, 0.536 µM (active); in the assay with OVCAR-5 it was 0.489 µM (active); with PC-3 it was 0.034 µM (active). For the same compound, the GI50 in the assay on SF-268 was 0.0668 µM (active); in the assay on SK-MEL-28, 0.248 µM (active); in the assay on SK-MEL-2 it was 0.233 µM (active); in the assay with SK-OV-3 it was 0.211 µM (active); with SN12C, 0.424 µM (active); in the assay on UACC-62, 0.149 µM (active). Besides, the 50% growth inhibitory concentration (GI50) in the assay on UO-31 is 0.202 µM (active).
Take `CCCCCC[C@H]([C@H](C)O)n1cnc2c(N)ncnc21`: the GI50 in the assay with A549 is > 100 µM (inactive); with DU-145 it was > 100 µM (inactive); with HCT-15 it was over 100 µM; with HOP-62, > 100 µM (inactive); with HOP-92, > 100 µM (inactive); in the assay on MDA-MB-435, > 100 µM (inactive). Moreover, the GI50 in the assay with MOLT-4, with NCI-H460, in the assay with NCI/ADR-RES, with OVCAR-5, in the assay on PC-3 and with SF-268 was > 100 µM (inactive) in each case. For the same compound, the GI50 in the assay with SK-MEL-28 was 49.3 µM (inactive); in the assay on SK-MEL-2, > 100 µM (inactive); with SK-OV-3, > 100 µM (inactive); with SN12C, > 100 µM (inactive); in the assay on UACC-62, > 100 µM (inactive); in the assay with UO-31, 91.8 µM (inactive).
Take `CCn1c(-c2ccccc2)nc2c1C(=O)c1ccccc1C2=O`: the GI50 with A549 was 28.4 µM (inactive); with DU-145, 28.1 µM (inactive); with HCT-15 it was 17.1 µM; with HOP-62, 42.5 µM (inactive); with HOP-92, 24.2 µM (inactive); in the assay with MDA-MB-435, 15.9 µM (inactive). Besides, the GI50 was 14.7 µM (inactive) with MOLT-4; 20 µM (inactive) with NCI-H460; 15.2 µM (inactive) in the assay on NCI-H522; 13.3 µM (inactive) in the assay with NCI/ADR-RES; 32.9 µM (inactive) in the assay with OVCAR-5; 10.2 µM (inactive) in the assay on PC-3. Besides, the GI50 in the assay on SK-MEL-28 is 56 µM (inactive); in the assay with SK-OV-3, 20.6 µM (inactive); in the assay on SN12C it was 20.7 µM (inactive); in the assay with UACC-62 it was 15.8 µM (inactive).
For the compound `N#Cc1nc(-c2cc([N+](=O)[O-])cc([N+](=O)[O-])c2)oc1N`, the GI50 in the assay on A549 was > 10 µM (inactive); with DU-145 it was > 10 µM (inactive); in the assay on HCT-15 it was over 10 µM; in the assay with HOP-62 it was > 10 µM (inactive); in the assay on HOP-92 it was > 10 µM (inactive); in the assay on MDA-MB-435 it was > 10 µM (inactive). For the same compound, the GI50 with MOLT-4, with NCI-H460, in the assay on NCI-H522, in the assay on NCI/ADR-RES, with PC-3 and in the assay on SF-268 was > 10 µM (inactive) in each case. For the same compound, the GI50 was > 10 µM (inactive) in the assay with SK-MEL-28; > 10 µM (inactive) in the assay with SK-OV-3; > 10 µM (inactive) in the assay with SN12C; > 10 µM (inactive) with UACC-62; 8.93 µM (inactive) with UO-31.
For the compound `Nc1nc(O)c2nc(CNc3ccc(C(=O)NC(CCC(=O)O)C(=O)O)cc3)cnc2n1` (stereo unspecified), the GI50 is > 100 µM (inactive) in the assay with A549; over 100 µM with HCT-15; > 100 µM (inactive) with HOP-62; > 100 µM (inactive) in the assay on MDA-MB-435; > 100 µM (inactive) with MOLT-4; > 100 µM (inactive) in the assay on NCI-H460. For the same compound, the GI50 in the assay on NCI-H522, in the assay with NCI/ADR-RES, with OVCAR-5, in the assay on PC-3, with SF-268 and with SK-MEL-28 was > 100 µM (inactive) each time. For the same compound, the GI50 in the assay on SK-MEL-2 is > 100 µM (inactive); with SK-OV-3, > 10 µM (inactive); in the assay with SN12C, > 100 µM (inactive); in the assay on UACC-62, > 100 µM (inactive); in the assay with UO-31 it was > 100 µM (inactive).
In the case of `CCc1nc(N)nc(N)c1-c1ccc(Cl)c(N=[N+]=[N-])c1`, the GI50 with A498 was 16.5 µM (inactive); with DU-145 it was 12.4 µM (inactive); in the assay on HOP-62, 9.53 µM (inactive); with HOP-92 it was 10.7 µM (inactive); in the assay on MDA-MB-435, 4.57 µM (inactive); in the assay with NCI-H522, 7.06 µM (inactive). The GI50 in the assay with NCI/ADR-RES was 6.31 µM (inactive); in the assay with OVCAR-5, 21.8 µM (inactive); with SF-268, 6.4 µM (inactive); with SK-MEL-28, 15.4 µM (inactive); with SK-MEL-2, 17.4 µM (inactive); with SK-OV-3, 30.2 µM (inactive). Further, the GI50 in the assay with SN12C is 9.38 µM (inactive).
